From US20170045529A1, “METHODS OF MEASURING ANTIGEN-SPECIFIC T CELLS” (ImmusanT, Inc., priority 2014, published 2017)
Non-standard residues stand in square brackets, D forms with d. pGlu = O=C1CC[C@@H](C(=O)O)N1

What was measured:
Type in all cases: cell-based, human
[1] = test system: whole blood; experiment: Whole blood IP-10 release to peptide pools and individual peptides, MAGPIX multiplex bead assay (Example 3); conditions: Table 10C, 10 uM
[2] = test system: whole blood; experiment: Whole blood IL-2 release to peptide pools and individual peptides, MAGPIX multiplex bead assay (Example 3); conditions: 10 uM
[3] = test system: whole blood; experiment: Whole blood IFN-γ release to peptide pools and individual peptides, MAGPIX multiplex bead assay (Example 3); conditions: 10 uM
[4] = Subject 1, day 0 since commencing oral challenge
[5] = Subject 1, day 6 since commencing oral challenge
[6] = Subject 2, day 0 since commencing oral challenge
[7] = Subject 2, day 6 since commencing oral challenge
[8] = Subject 6, day 0 since commencing oral challenge
[9] = Subject 6, day 6 since commencing oral challenge
[10] = Subject 7, day 0 since commencing oral challenge
[11] = Subject 7, day 6 since commencing oral challenge
[12] = Subject 1 (HLA-DQ 2.5, 8), day 0 of oral challenge
[13] = Subject 1 (HLA-DQ 2.5, 8), day 6 of oral challenge
[14] = Subject 2 (HLA-DQ 2.5, 8), day 0 of oral challenge
[15] = Subject 2 (HLA-DQ 2.5, 8), day 6 of oral challenge
[16] = Subject 6 (HLA-DQ 2.5), day 0 of oral challenge
[17] = Subject 6 (HLA-DQ 2.5), day 6 of oral challenge
[18] = Subject 7 (HLA-DQ 2.5, 8), day 0 of oral challenge
[19] = Subject 7 (HLA-DQ 2.5, 8), day 6 of oral challenge

(pE)PEQPIPEQPQPYPQQ-NH2 ([pGlu]PEQPIPEQPQPYPQQ-NH2; SMILES CC[C@H](C)[C@H](NC(=O)[C@@H]1CCCN1C(=O)[C@H](CCC(N)=O)NC(=O)[C@H](CCC(=O)O)NC(=O)[C@@H]1CCCN1C(=O)[C@@H]1CCC(=O)N1)C(=O)N1CCC[C@H]1C(=O)N[C@@H](CCC(=O)O)C(=O)N[C@@H](CCC(N)=O)C(=O)N1CCC[C@H]1C(=O)N[C@@H](CCC(N)=O)C(=O)N1CCC[C@H]1C(=O)N[C@@H](Cc1ccc(O)cc1)C(=O)N1CCC[C@H]1C(=O)N[C@@H](CCC(N)=O)C(=O)N[C@@H](CCC(N)=O)C(N)=O)
Whole blood IP-10 release, Concentration [1, 4]: 235 pg/mL | Whole blood IP-10 release, Fold-change over medium only [1, 4]: 0.89 | Whole blood IP-10 release, Concentration [1, 5]: 325 pg/mL | Whole blood IP-10 release, Fold-change over medium only [1, 5]: 0.97 | Whole blood IP-10 release, Concentration [1, 6]: 336 pg/mL | Whole blood IP-10 release, Fold-change over medium only [1, 6]: 1.26 | Whole blood IP-10 release, Concentration [1, 7]: 1269 pg/mL | Whole blood IP-10 release, Fold-change over medium only [1, 7]: 4.06 | Whole blood IP-10 release, Concentration [1, 8]: 3409 pg/mL | Whole blood IP-10 release, Fold-change over medium only [1, 8]: 12.30 | Whole blood IP-10 release, Concentration [1, 9]: 10000 pg/mL | Whole blood IP-10 release, Fold-change over medium only [1, 9]: 49.76 | Whole blood IP-10 release, Concentration [1, 10]: 713 pg/mL | Whole blood IP-10 release, Fold-change over medium only [1, 10]: 0.96 | Whole blood IP-10 release, Concentration [1, 11]: 2549 pg/mL | Whole blood IP-10 release, Fold-change over medium only [1, 11]: 2.86 | Whole blood IL-2 release, Concentration [2, 12]: 3.2 pg/mL | Whole blood IL-2 release, Fold-change over medium only [2, 12]: 1.00 | Whole blood IL-2 release, Concentration [2, 13]: 3.2 pg/mL | Whole blood IL-2 release, Fold-change over medium only [2, 13]: 1.00 | Whole blood IL-2 release, Concentration [2, 14]: 3.2 pg/mL | Whole blood IL-2 release, Fold-change over medium only [2, 14]: 1.00 | Whole blood IL-2 release, Concentration [2, 15]: 22.4 pg/mL | Whole blood IL-2 release, Fold-change over medium only [2, 15]: 7.00 | Whole blood IL-2 release, Concentration [2, 16]: 23.3 pg/mL | Whole blood IL-2 release, Fold-change over medium only [2, 16]: 4.71 | Whole blood IL-2 release, Concentration [2, 17]: 134.3 pg/mL | Whole blood IL-2 release, Fold-change over medium only [2, 17]: 31.67 | Whole blood IL-2 release, Concentration [2, 18]: 106.1 pg/mL | Whole blood IL-2 release, Fold-change over medium only [2, 18]: 1.69 | Whole blood IL-2 release, Concentration [2, 19]: 27.8 pg/mL | Whole blood IL-2 release, Fold-change over medium only [2, 19]: 0.66 | Whole blood IFNg release, Concentration [3, 12]: 42 pg/mL | Whole blood IFNg release, Fold-change over medium only [3, 12]: 0.76 | Whole blood IFNg release, Concentration [3, 13]: 72 pg/mL | Whole blood IFNg release, Fold-change over medium only [3, 13]: 1.09 | Whole blood IFNg release, Concentration [3, 14]: 3.3 pg/mL | Whole blood IFNg release, Fold-change over medium only [3, 14]: 0.85 | Whole blood IFNg release, Concentration [3, 15]: 8.6 pg/mL | Whole blood IFNg release, Fold-change over medium only [3, 15]: 1.77 | Whole blood IFNg release, Concentration [3, 16]: 96 pg/mL | Whole blood IFNg release, Fold-change over medium only [3, 16]: 0.99 | Whole blood IFNg release, Concentration [3, 17]: 278 pg/mL | Whole blood IFNg release, Fold-change over medium only [3, 17]: 2.84 | Whole blood IFNg release, Concentration [3, 18]: 170 pg/mL | Whole blood IFNg release, Fold-change over medium only [3, 18]: 0.71 | Whole blood IFNg release, Concentration [3, 19]: 102 pg/mL | Whole blood IFNg release, Fold-change over medium only [3, 19]: 0.68

(pE)QPFPQPEQPFPWQP-NH2 ([pGlu]QPFPQPEQPFPWQP-NH2; SMILES NC(=O)CC[C@H](NC(=O)[C@H](Cc1c[nH]c2ccccc12)NC(=O)[C@@H]1CCCN1C(=O)[C@H](Cc1ccccc1)NC(=O)[C@@H]1CCCN1C(=O)[C@H](CCC(N)=O)NC(=O)[C@H](CCC(=O)O)NC(=O)[C@@H]1CCCN1C(=O)[C@H](CCC(N)=O)NC(=O)[C@@H]1CCCN1C(=O)[C@H](Cc1ccccc1)NC(=O)[C@@H]1CCCN1C(=O)[C@H](CCC(N)=O)NC(=O)[C@@H]1CCC(=O)N1)C(=O)N1CCC[C@H]1C(N)=O)
Whole blood IP-10 release, Concentration [1, 4]: 218 pg/mL | Whole blood IP-10 release, Fold-change over medium only [1, 4]: 0.82 | Whole blood IP-10 release, Concentration [1, 5]: 501 pg/mL | Whole blood IP-10 release, Fold-change over medium only [1, 5]: 1.49 | Whole blood IP-10 release, Concentration [1, 6]: 376 pg/mL | Whole blood IP-10 release, Fold-change over medium only [1, 6]: 1.42 | Whole blood IP-10 release, Concentration [1, 7]: 1140 pg/mL | Whole blood IP-10 release, Fold-change over medium only [1, 7]: 3.65 | Whole blood IP-10 release, Concentration [1, 8]: 1934 pg/mL | Whole blood IP-10 release, Fold-change over medium only [1, 8]: 6.98 | Whole blood IP-10 release, Concentration [1, 9]: 10000 pg/mL | Whole blood IP-10 release, Fold-change over medium only [1, 9]: 49.76 | Whole blood IP-10 release, Concentration [1, 10]: 900 pg/mL | Whole blood IP-10 release, Fold-change over medium only [1, 10]: 1.21 | Whole blood IP-10 release, Concentration [1, 11]: 10000 pg/mL | Whole blood IP-10 release, Fold-change over medium only [1, 11]: 11.21 | Whole blood IL-2 release, Concentration [2, 12]: 3.2 pg/mL | Whole blood IL-2 release, Fold-change over medium only [2, 12]: 1.00 | Whole blood IL-2 release, Concentration [2, 13]: 3.2 pg/mL | Whole blood IL-2 release, Fold-change over medium only [2, 13]: 1.00 | Whole blood IL-2 release, Concentration [2, 14]: 3.2 pg/mL | Whole blood IL-2 release, Fold-change over medium only [2, 14]: 1.00 | Whole blood IL-2 release, Concentration [2, 15]: 5.2 pg/mL | Whole blood IL-2 release, Fold-change over medium only [2, 15]: 1.61 | Whole blood IL-2 release, Concentration [2, 16]: 17.9 pg/mL | Whole blood IL-2 release, Fold-change over medium only [2, 16]: 3.62 | Whole blood IL-2 release, Concentration [2, 17]: 115.9 pg/mL | Whole blood IL-2 release, Fold-change over medium only [2, 17]: 27.33 | Whole blood IL-2 release, Concentration [2, 18]: 41.4 pg/mL | Whole blood IL-2 release, Fold-change over medium only [2, 18]: 0.66 | Whole blood IL-2 release, Concentration [2, 19]: 55.1 pg/mL | Whole blood IL-2 release, Fold-change over medium only [2, 19]: 1.31 | Whole blood IFNg release, Concentration [3, 12]: 60 pg/mL | Whole blood IFNg release, Fold-change over medium only [3, 12]: 1.09 | Whole blood IFNg release, Concentration [3, 13]: 62 pg/mL | Whole blood IFNg release, Fold-change over medium only [3, 13]: 0.95 | Whole blood IFNg release, Concentration [3, 14]: 4.5 pg/mL | Whole blood IFNg release, Fold-change over medium only [3, 14]: 1.19 | Whole blood IFNg release, Concentration [3, 15]: 6.4 pg/mL | Whole blood IFNg release, Fold-change over medium only [3, 15]: 1.32 | Whole blood IFNg release, Concentration [3, 16]: 94 pg/mL | Whole blood IFNg release, Fold-change over medium only [3, 16]: 0.98 | Whole blood IFNg release, Concentration [3, 17]: 258 pg/mL | Whole blood IFNg release, Fold-change over medium only [3, 17]: 2.63 | Whole blood IFNg release, Concentration [3, 18]: 158 pg/mL | Whole blood IFNg release, Fold-change over medium only [3, 18]: 0.66 | Whole blood IFNg release, Concentration [3, 19]: 150 pg/mL | Whole blood IFNg release, Fold-change over medium only [3, 19]: 1.00

(pE)LQPFPQPELPYPQPQ-NH2 ([pGlu]LQPFPQPELPYPQPQ-NH2; SMILES CC(C)C[C@H](NC(=O)[C@@H]1CCC(=O)N1)C(=O)N[C@@H](CCC(N)=O)C(=O)N1CCC[C@H]1C(=O)N[C@@H](Cc1ccccc1)C(=O)N1CCC[C@H]1C(=O)N[C@@H](CCC(N)=O)C(=O)N1CCC[C@H]1C(=O)N[C@@H](CCC(=O)O)C(=O)N[C@@H](CC(C)C)C(=O)N1CCC[C@H]1C(=O)N[C@@H](Cc1ccc(O)cc1)C(=O)N1CCC[C@H]1C(=O)N[C@@H](CCC(N)=O)C(=O)N1CCC[C@H]1C(=O)N[C@@H](CCC(N)=O)C(N)=O)
Whole blood IP-10 release, Concentration [1, 4]: 201 pg/mL | Whole blood IP-10 release, Fold-change over medium only [1, 4]: 0.76 | Whole blood IP-10 release, Concentration [1, 5]: 384 pg/mL | Whole blood IP-10 release, Fold-change over medium only [1, 5]: 1.15 | Whole blood IP-10 release, Concentration [1, 6]: 320 pg/mL | Whole blood IP-10 release, Fold-change over medium only [1, 6]: 1.20 | Whole blood IP-10 release, Concentration [1, 7]: 1844 pg/mL | Whole blood IP-10 release, Fold-change over medium only [1, 7]: 5.90 | Whole blood IP-10 release, Concentration [1, 8]: 1616 pg/mL | Whole blood IP-10 release, Fold-change over medium only [1, 8]: 5.83 | Whole blood IP-10 release, Concentration [1, 9]: 10000 pg/mL | Whole blood IP-10 release, Fold-change over medium only [1, 9]: 49.76 | Whole blood IP-10 release, Concentration [1, 10]: 977 pg/mL | Whole blood IP-10 release, Fold-change over medium only [1, 10]: 1.32 | Whole blood IP-10 release, Concentration [1, 11]: 3293 pg/mL | Whole blood IP-10 release, Fold-change over medium only [1, 11]: 3.69 | Whole blood IL-2 release, Concentration [2, 12]: 3.2 pg/mL | Whole blood IL-2 release, Fold-change over medium only [2, 12]: 1.00 | Whole blood IL-2 release, Concentration [2, 13]: 3.2 pg/mL | Whole blood IL-2 release, Fold-change over medium only [2, 13]: 1.00 | Whole blood IL-2 release, Concentration [2, 14]: 3.2 pg/mL | Whole blood IL-2 release, Fold-change over medium only [2, 14]: 1.00 | Whole blood IL-2 release, Concentration [2, 15]: 12.2 pg/mL | Whole blood IL-2 release, Fold-change over medium only [2, 15]: 3.82 | Whole blood IL-2 release, Concentration [2, 16]: 12.5 pg/mL | Whole blood IL-2 release, Fold-change over medium only [2, 16]: 2.52 | Whole blood IL-2 release, Concentration [2, 17]: 88.5 pg/mL | Whole blood IL-2 release, Fold-change over medium only [2, 17]: 20.88 | Whole blood IL-2 release, Concentration [2, 18]: 144.4 pg/mL | Whole blood IL-2 release, Fold-change over medium only [2, 18]: 2.30 | Whole blood IL-2 release, Concentration [2, 19]: 71.2 pg/mL | Whole blood IL-2 release, Fold-change over medium only [2, 19]: 1.69 | Whole blood IFNg release, Concentration [3, 12]: 39 pg/mL | Whole blood IFNg release, Fold-change over medium only [3, 12]: 0.71 | Whole blood IFNg release, Concentration [3, 13]: 55 pg/mL | Whole blood IFNg release, Fold-change over medium only [3, 13]: 0.84 | Whole blood IFNg release, Concentration [3, 14]: 4.1 pg/mL | Whole blood IFNg release, Fold-change over medium only [3, 14]: 1.06 | Whole blood IFNg release, Concentration [3, 15]: 13.9 pg/mL | Whole blood IFNg release, Fold-change over medium only [3, 15]: 2.85 | Whole blood IFNg release, Concentration [3, 16]: 102 pg/mL | Whole blood IFNg release, Fold-change over medium only [3, 16]: 1.05 | Whole blood IFNg release, Concentration [3, 17]: 200 pg/mL | Whole blood IFNg release, Fold-change over medium only [3, 17]: 2.03 | Whole blood IFNg release, Concentration [3, 18]: 407 pg/mL | Whole blood IFNg release, Fold-change over medium only [3, 18]: 1.71 | Whole blood IFNg release, Concentration [3, 19]: 194 pg/mL | Whole blood IFNg release, Fold-change over medium only [3, 19]: 1.29
